In patent publication US11020381B2, “Biaryloxy derivatives as TTX-S blockers” (RaQualia Pharma Inc., priority 2017, dated 2021):
Values joined by “and” are separate entries in the source; they are usually repeats but may differ in a detail not shown here. Equal values may be shown once. Read-outs that look alike come from different tables or passages of the source.

Columns and labels:
Nav1.7 [1] = biological target: T1, Nav1.7 (Homo sapiens (Human), UniProt Q15858); test: EFS-FRET assay; type: cell-based; conditions: CHO cells expressing human Nav1.7 channels; read-out: IC50 against Nav1.7
T1 sequence (Q15858 whole entry): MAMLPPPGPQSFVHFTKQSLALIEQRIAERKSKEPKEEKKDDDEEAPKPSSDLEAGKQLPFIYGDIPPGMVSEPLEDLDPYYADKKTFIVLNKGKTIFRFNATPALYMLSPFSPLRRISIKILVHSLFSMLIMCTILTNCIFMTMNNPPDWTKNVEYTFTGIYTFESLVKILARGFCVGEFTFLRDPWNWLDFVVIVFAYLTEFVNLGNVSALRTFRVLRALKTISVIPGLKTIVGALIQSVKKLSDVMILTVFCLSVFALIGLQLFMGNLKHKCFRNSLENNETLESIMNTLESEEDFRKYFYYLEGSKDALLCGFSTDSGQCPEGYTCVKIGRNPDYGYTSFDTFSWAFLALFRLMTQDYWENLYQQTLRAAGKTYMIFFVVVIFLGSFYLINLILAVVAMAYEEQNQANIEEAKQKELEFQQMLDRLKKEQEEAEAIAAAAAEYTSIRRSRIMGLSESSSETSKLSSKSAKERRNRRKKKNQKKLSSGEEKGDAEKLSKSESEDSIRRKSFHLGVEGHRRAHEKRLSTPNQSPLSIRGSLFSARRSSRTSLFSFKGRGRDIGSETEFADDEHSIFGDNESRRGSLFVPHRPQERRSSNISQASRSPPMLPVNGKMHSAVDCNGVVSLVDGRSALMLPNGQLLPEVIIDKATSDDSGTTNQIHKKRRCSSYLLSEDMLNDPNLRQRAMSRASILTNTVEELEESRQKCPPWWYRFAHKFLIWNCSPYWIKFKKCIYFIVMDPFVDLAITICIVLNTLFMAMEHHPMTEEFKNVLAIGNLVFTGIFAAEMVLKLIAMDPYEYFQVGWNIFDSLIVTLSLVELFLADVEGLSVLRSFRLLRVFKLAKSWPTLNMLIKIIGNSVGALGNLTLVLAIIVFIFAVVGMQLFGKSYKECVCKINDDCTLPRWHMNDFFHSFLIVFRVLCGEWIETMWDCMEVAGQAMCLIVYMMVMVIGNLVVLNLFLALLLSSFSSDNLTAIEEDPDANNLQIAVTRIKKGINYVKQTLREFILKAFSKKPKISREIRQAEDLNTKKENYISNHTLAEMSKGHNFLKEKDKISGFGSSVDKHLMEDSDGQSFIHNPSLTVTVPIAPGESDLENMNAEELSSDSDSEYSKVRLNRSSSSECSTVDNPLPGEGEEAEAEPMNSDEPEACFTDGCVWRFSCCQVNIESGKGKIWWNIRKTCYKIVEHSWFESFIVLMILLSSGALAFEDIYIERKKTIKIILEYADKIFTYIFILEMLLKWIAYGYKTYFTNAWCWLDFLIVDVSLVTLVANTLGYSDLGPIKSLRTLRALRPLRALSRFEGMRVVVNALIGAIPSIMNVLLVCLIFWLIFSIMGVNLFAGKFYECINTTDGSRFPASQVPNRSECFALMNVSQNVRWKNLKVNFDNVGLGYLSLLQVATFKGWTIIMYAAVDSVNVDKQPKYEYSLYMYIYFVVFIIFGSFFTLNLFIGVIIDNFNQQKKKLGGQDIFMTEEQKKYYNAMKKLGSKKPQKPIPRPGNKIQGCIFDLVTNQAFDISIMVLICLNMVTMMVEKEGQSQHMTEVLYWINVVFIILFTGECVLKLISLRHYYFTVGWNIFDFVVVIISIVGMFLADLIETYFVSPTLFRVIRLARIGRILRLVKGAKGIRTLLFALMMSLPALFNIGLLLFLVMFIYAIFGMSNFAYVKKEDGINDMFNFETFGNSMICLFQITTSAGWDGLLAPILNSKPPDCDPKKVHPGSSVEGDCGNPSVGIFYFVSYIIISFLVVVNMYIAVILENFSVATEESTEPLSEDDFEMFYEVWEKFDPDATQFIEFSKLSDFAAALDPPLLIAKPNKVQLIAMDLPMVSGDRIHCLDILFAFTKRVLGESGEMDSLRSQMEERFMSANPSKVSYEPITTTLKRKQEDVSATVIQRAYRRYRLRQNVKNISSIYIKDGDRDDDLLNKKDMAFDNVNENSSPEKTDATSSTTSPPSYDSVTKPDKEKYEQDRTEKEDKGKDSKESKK
Experimental: This screen is used to determine the effects of compounds on human Nav1.7 channels, utilizing electrical field stimulation (EFS) system in 96-well plate format on FDSS (Hamamatsu Photonics) platform. The changes of membrane potential are monitored with FRET dye pair, DiSBAC2(3) and PTS 18.
CHO (Chinese hamster ovary) cells expressing human Nav1.7 channels are grown in T225 flasks, in a 5% CO2 humidified incubator to about 80% confluence. Media composition consists of HAM/F12 with Glutamax I, 10% FCS, 100 units/mL penicillin and 100 microgram/mL hygromycin.
Seed each cell lines (1×10^5 cells/well) into 96-well plates prior to experimentation.
Incubate at 37° C. in 5% CO2 for 24 hours.
Wash each well with assay buffer (140 mM NaCl, 4.5 mM KCl, 10 mM D-Glucose, 2 mM CaCl2, 1 mM MgCl2, 10 mM HEPES, pH 7.4 adjusted with NaOH) twice.
Add 1st loading solution containing 10 microM PTS 18 and 0.06% Pluronic F-127 in assay buffer.
Incubate the plate at rt in dark for 1 hour.
Remove 1st loading solution and add 2nd loading solution containing 12.5 microM DiSBAC2(3), 1.25 mM Xylene Fast Yellow and 0.0075% Pluronic F-127 in assay buffer.
Place the plate under the dark at rt for 25 minutes.
Add compound solutions into the assay plate.
Set the assay plate in FDSS and place an EFS device on the plate.
Measure EFS-induced fluorescent response by FDSS.
The data are analyzed and reported as normalized ratios of intensities measured at […]. The process of calculating these ratios is performed as follows:
(§1) This analysis is performed using a computerized specific program designed for FDSS generated data. Fluorescence ratio values are plotted using XLfit to determine an IC50 value for each compound.

Nav1.5 [2] = biological target: T2, Nav1.5 (Homo sapiens (Human), UniProt Q14524); test: FRET assay; type: cell-based; conditions: HEK293 cells expressing human Nav1.5 channels; read-out: activity (IC50) against Nav1.5
T2 sequence (Q14524 whole entry): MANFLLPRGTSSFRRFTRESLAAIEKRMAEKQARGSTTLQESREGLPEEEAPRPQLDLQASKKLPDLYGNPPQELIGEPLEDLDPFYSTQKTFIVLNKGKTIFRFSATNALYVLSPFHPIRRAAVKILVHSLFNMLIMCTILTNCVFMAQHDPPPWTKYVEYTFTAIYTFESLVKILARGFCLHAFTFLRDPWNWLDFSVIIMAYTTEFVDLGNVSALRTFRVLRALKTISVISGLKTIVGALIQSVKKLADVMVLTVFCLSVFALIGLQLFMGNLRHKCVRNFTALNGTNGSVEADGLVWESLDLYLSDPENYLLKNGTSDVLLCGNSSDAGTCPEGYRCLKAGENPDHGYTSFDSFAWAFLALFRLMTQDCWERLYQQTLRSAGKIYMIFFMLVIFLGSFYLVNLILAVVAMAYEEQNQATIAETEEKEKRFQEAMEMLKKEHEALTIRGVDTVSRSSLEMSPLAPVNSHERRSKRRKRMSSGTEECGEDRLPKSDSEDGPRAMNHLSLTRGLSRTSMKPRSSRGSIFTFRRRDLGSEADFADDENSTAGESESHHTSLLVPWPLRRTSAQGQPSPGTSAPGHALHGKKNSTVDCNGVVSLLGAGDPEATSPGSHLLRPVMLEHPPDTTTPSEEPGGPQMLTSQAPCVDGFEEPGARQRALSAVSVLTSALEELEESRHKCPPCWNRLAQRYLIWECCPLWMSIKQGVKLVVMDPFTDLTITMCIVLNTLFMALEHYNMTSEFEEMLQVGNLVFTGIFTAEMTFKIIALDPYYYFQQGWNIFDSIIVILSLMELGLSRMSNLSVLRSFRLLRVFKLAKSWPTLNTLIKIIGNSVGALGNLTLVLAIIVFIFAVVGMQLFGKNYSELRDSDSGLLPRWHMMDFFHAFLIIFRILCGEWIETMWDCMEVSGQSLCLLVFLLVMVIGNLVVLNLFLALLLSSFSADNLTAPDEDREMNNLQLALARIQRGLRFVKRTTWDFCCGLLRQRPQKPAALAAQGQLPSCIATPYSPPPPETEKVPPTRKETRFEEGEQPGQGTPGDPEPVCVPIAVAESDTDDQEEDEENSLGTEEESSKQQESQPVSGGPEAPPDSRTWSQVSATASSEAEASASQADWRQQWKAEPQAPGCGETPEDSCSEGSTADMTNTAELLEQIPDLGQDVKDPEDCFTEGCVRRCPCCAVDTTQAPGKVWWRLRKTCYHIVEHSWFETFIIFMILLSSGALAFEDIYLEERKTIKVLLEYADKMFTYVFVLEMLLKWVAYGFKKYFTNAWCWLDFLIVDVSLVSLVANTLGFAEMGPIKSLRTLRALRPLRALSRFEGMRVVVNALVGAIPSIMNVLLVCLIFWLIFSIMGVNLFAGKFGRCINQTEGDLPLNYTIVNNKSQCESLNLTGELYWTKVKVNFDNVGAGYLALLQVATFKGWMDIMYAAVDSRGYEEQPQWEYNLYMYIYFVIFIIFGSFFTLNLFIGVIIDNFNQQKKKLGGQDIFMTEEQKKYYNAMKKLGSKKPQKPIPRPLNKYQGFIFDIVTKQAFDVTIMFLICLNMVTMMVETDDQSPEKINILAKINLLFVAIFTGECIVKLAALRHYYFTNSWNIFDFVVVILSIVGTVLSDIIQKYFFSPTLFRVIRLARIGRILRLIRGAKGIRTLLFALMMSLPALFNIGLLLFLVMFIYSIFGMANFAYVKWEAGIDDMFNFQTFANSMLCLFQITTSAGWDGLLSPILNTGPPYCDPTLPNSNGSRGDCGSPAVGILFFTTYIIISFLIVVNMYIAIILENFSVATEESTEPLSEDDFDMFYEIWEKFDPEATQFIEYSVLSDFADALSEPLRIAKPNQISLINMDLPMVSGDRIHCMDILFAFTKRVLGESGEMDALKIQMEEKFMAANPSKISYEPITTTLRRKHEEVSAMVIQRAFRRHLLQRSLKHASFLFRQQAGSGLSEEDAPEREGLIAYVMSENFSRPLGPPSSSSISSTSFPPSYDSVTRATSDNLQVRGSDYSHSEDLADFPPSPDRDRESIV
Experimental: This screen is used to determine the effects of compounds on human Nav1.5 channels, utilizing the cell imaging technology by Hamamatsu Photonics's Functional Drug Screening System (FDSS). The changes of membrane potential are monitored with fluorescent membrane potential dye pair, DiSBAC2(3) and CC2-DMPE, using FRET technology.
HEK293 cells expressing human Nav1.5 channels are grown in T225 flasks, in a 5% CO2 humidified incubator to about 80% confluence. HEK293 cells expressing human Nav1.5 channels are maintained in Dulbecco's Modified Eagle Medium (high glucose) supplemented with 10% fetal calf serum (FCS), 100 units/mL Penicillin, 100 microgram/mL Streptomycin and 500 microgram/mL Geneticine. […]
The data is analyzed and reported as normalized ratios of intensities measured in the 465 nm and 575 nm channels. […]
“FI465B”=the mean of fluorescence intensity as baseline (before Na^+ ligand addition) at 465 nm
“FI575B”=the mean of fluorescence intensity as baseline (before Na^+ ligand addition) at 575 nm
“FI465Max” maximum fluorescence intensity at 465 nm after Na^+ stimulation
“FI575Min”=minimum fluorescence intensity at 575 nm after Na^+ stimulation
as §1

Nav1.7 [3] = biological target: T1, Nav1.7; test: Manual patch clamp assay, two pulse protocol; type: cell-based
Experimental: Manual patch clamp recordings are conducted at RT using the voltage-clamp amplifier (Axon Instruments or HEKA electronik). Electrodes are pulled with P-97 electrode puller (Sutter Instrument). The electrode resistances are 1-3 MOhm when intercellular solution is filled. Currents are lowpass filtered between 2-5 kHz and digitally sampled at 10 kHz.
The extracellular and intercellular solutions for human Nav1.7 and NaV1.5 consist of the following composition:
Extracellular recording solution (mM): 135 NaCl, 5 KCl, 2 CaCl2, 1 MgCl2, 10 HEPES, and 10 Glucose, pH 7.4 adjusted with NaOH; and
Intercellular solution (mM): 120 CsF, 15 NaCl, 10 EGTA, and 10 HEPES, pH 7.2 adjusted with CsOH.
After whole-cell configuration is achieved, cell is monitored at least 10 minutes to allow cell dialysis with pipette solution. To evaluate of inhibitory effects of test compounds, the cells are clamped at −120 or −130 mV. […]
Peak currents evoked by Test 1 and Test 2 pulses are sampled with Clampex (Axon Instruments) or Pulse+Pulse Fit (HEKA). Averaged peak currents under vehicle or test compounds are calculated from 3 data points at end of each condition. Inhibitory effect (% inhibition) of test compound is calculated as bellow; % inhibition=[1−Averaged peak current (Compound)/Averaged peak current (Vehicle)]×100 [Math.5] […]

Nav1.7 [4] = biological target: T1, Nav1.7; test: Affinity to resting state (Kr) and inactivated state (Ki), manual patch clamp; type: cell-based; conditions: read-out: Ki (inactivated state) against Nav1.7
Excerpt: Affinity to Resting State (Kr) and Inactivated State (Ki) of Test Compound
The normalized steady-state inactivation curve is constructed using 2 sec (for vehicle) or 60 sec (for drugs) conditioning pulse to different potentials followed immediately by the test pulse to −10 mV. Peak currents are plotted as fraction of the maximum current at the conditioning potentials ranging from −120 mV to 0 mV for Nav1.7. V1/2 and k values are estimated from Boltzmann fits. The affinity of test compound to resting state of Na channels (Kresting or Kr) is assessed by depolarizing test pulse from a negative holding potential of −130 mV, where virtually all channels are in the resting state. Kr value is calculated by a conventional 1:1 binding model: Kresting(Kr)={[drug]Imax,drug/(Imax,control−Imax,drug)} [Math.6] where Kresting (=Kr) is a dissociation constant for the resting state and [drug] is compound concentration. Imax,control and Imax,drug are peak currents in the absence and presence of compound, respectively.
Interaction of the compound with the channel on inactivated state is evaluated by the following equation: Kinact(Ki)={[drug]/((1+[drug]/Kr)*exp(−ΔV/k)−1)} [Math.7] where Kinact (=Ki) is a dissociation constant for the inactivated state. ΔV is the compound-induced voltage shift of half maximal voltage of Boltzmann curve and k is the slop factor on presense of compound.

Nav1.5 [5] = biological target: T2, Nav1.5; test: Automated electrophysiology assay (Qpatch HTX); type: cell-based; conditions: Test 2 pulse, read-out: Inactivated IC50 against Nav1.5
Experimental: Automated Electrophysiology Assay
Automated patch clamp recordings are conducted for evaluation of inhibitory effect against Nav1.5 with the Qpatch HTX system according the manufacturer's specifications (Sophion).
The extracellular and intercellular solutions consist of the following composition:
Extracellular recording solution (mM): 137 NaCl, 4 KCl, 1.8 CaCl2, 1 MgCl2, 10 HEPES, and 10 Glucose, pH 7.4 adjusted with NaOH
Intercellular solution (mM): 135 CsF, 10 NaCl, 5 EGTA, and 10 HEPES, pH 7.3 adjusted with CsOH.
To evaluate of inhibitory effects of test compounds against Nav1.5, the cells are clamped at −110 mV. […]
Peak currents evoked by Testl and Test 2 pulses are sampled with Qpatch assay software (Sophion). Averaged peak currents under vehicle or test compounds are calculated from 3 data points at end of each condition. Inhibitory effect (% inhibition) of test compound is calculated as bellow; % inhibition=[1−Averaged peak current (Compound)/Averaged peak current (Vehicle)]×100 [Math.4]
Inhibitory effects (% inhibition) of each concentration are measured from at least 2 cells. Averaged inhibitory effects are plotted against test concentration and IC50 values at Test 1 (Closed IC50) or Test 2 (Inactivated IC50) are calculated with Hill equation, respectively. […]

Nav1.7 [6] = biological target: T1, Nav1.7; conditions: data cited from the table at page 103 in WO2012/007868; read-out: IC50 against Nav1.7 channel; cited from earlier work

Row | SMILES | IC50 (Nav1.7 [1]) | further results
1 | CS(=O)(=O)NC(=O)c1ccc(COc2cc(F)cc(-c3ccc(OCC4CC4)nc3)c2)cc1 [Example 30, 4-((3-(6-(cyclopropylmethoxy)pyridin-3-yl)-5-fluorophenoxy)methyl)-N-(methylsulfonyl)benzamide] |  | IC50 (Nav1.5 [5]): > 30 µM
2 | CS(=O)(=O)NC(=O)c1ccc(COc2cccc(-c3cc(CC4CC4)on3)c2)c(F)c1 [Example 84, 4-((3-(5-(cyclopropylmethyl)isoxazol-3-yl)phenoxy)methyl)-3-fluoro-N-(methylsulfonyl)benzamide] | 0.05 µM | 
3 | CS(=O)(=O)NC(=O)c1ccc(COc2cccc(C3CCNCC3)c2)cc1 [WO2012/007868 Example 35] |  | IC50 (Nav1.7 [6]): > 3 µM
4 | Cc1c(OCc2cc(F)c(C(=O)NS(C)(=O)=O)cc2F)cccc1-n1cccn1 [WO2012/007868 Example 102] |  | IC50 (Nav1.7 [6]): > 3 µM
5 | CS(=O)(=O)NC(=O)c1ccc(COc2cccc(-c3cccnc3)c2)cc1 [reference compound (A), reference compound] | > 3 µM | 
6 | CS(=O)(=O)NC(=O)c1cc(F)c(COc2cccc(-c3cccnc3)c2)cc1F [reference compound (C), reference compound] | 0.6 µM | 

More lines, main results first:

Row | IC50 (Nav1.7 [1]) | SMILES | further results
7 | 0.084 µM and 0.08 µM | CS(=O)(=O)NC(=O)c1ccc(COc2cccc(-c3ccc(OCC4CC4)nc3)c2)cc1 [Example 2, 4-((3-(6-(cyclopropylmethoxy)pyridin-3-yl)phenoxy)methyl)-N-(methylsulfonyl)benzamide] | IC50 (Nav1.5 [2]): > 30 µM; selectivity for Nav1.7 over Nav1.5 (Nav1.7 [3]): 75 fold; Ki (Nav1.7 [4]): 0.022 µM
8 | 0.05 µM | CS(=O)(=O)NC(=O)c1ccc(COc2cccc(-c3ccc(OCC4CC4)nc3)c2)c(F)c1 [Example 14, 4-((3-(6-(cyclopropylmethoxy)pyridin-3-yl)phenoxy)methyl)-3-fluoro-N-(methylsulfonyl)benzamide] | 
9 | 0.05 µM | CS(=O)(=O)NC(=O)c1cc(F)c(COc2cccc(-c3ccc(OCC4CC4)nc3)c2)cc1F [Example 24, 4-((3-(6-(cyclopropylmethoxy)pyridin-3-yl)phenoxy)methyl)-2,5-difluoro-N-(methylsulfonyl)benzamide] | 
10 | 1.3 µM | CS(=O)(=O)NC(=O)c1ccc(COc2cccc(-c3cccnc3)c2)c(F)c1 [reference compound (B), reference compound] | 
